Data published in ChEMBL document CHEMBL5154652, “Design, synthesis and anti-hepatocellular carcinoma activity of 3-arylisoquinoline alkaloids” (Eur J Med Chem, 2022).
Calls of active or inactive are those of the source. The calls are words filed in the database; no cut-off is given here.

Key:
HCCLM9 = test: Antiproliferative activity against human HCCLM9 cells after 72 hrs by MTT assay; assay type: functional, cell-based; conditions: HCCLM9, 72 h
Huh-7 = test: Antiproliferative activity against human Huh-7 cells after 72 hrs by MTT assay; assay type: functional, cell-based; conditions: Huh-7, 72 h
HepG2 = test: Antiproliferative activity against human HepG2 cells after 72 hrs by MTT assay; assay type: functional, cell-based; conditions: HepG2, 72 h
HT-29 = test: Antiproliferative activity against human HT-29 cells after 72 hrs by MTT assay; assay type: functional, cell-based; conditions: HT-29, 72 h
HCT-116 = test: Antiproliferative activity against human HCT-116 cells after 72 hrs by MTT assay; assay type: functional, cell-based; conditions: HCT-116, 72 h
RKO = test: Antiproliferative activity against human RKO cells after 72 hrs by MTT assay; assay type: functional, cell-based
SW480 = test: Antiproliferative activity against human SW480 cells after 72 hrs by MTT assay; assay type: functional, cell-based; conditions: SW480, 72 h
MCF7 = test: Antiproliferative activity against human MCF7 cells after 72 hrs by MTT assay; assay type: functional, cell-based; conditions: MCF7, 72 h
MDA-MB-231 = test: Antiproliferative activity against human MDA-MB-231 cells after 72 hrs by MTT assay; assay type: functional, cell-based; conditions: MDA-MB-231, 72 h
HGC-27 = test: Antiproliferative activity against human HGC-27 cells after 72 hrs by MTT assay; assay type: functional, cell-based; conditions: HGC-27, 72 h
SGC-7901 = test: Antiproliferative activity against human SGC-7901 cells after 72 hrs by MTT assay; assay type: functional, cell-based; conditions: SGC-7901, 72 h
BGC-823 = test: Antiproliferative activity against human BGC-823 cells after 72 hrs by MTT assay; assay type: functional, cell-based; conditions: BGC-823, 72 h
A549 = test: Antiproliferative activity against human A549 cells after 72 hrs by MTT assay; assay type: functional, cell-based; conditions: A549, 72 h
U-251 = test: Antiproliferative activity against human U-251 cells after 72 hrs by MTT assay; assay type: functional, cell-based; conditions: U-251, 72 h
HL-60 = test: Antiproliferative activity against human HL-60 cells after 72 hrs by MTT assay; assay type: functional, cell-based; conditions: HL-60, 72 h
L02 = test: Antiproliferative activity against human L02 cells after 72 hrs by MTT assay; assay type: functional, cell-based; conditions: L02, 72 h
SK-HEP1 = test: Antiproliferative activity against human SK-HEP1 cells after 72 hrs by MTT assay; assay type: functional, cell-based; conditions: SK-HEP1, 72 h
[1] = target: DNA topoisomerase 1 (Homo sapiens) (UniProt P11387); test: Inhibition of DNA topoisomerase 1 (unknown origin) at 25 to 50 uM measured by agar gel electrophoresis relative to control; conditions: dose 25-50 µM
Chain of DNA topoisomerase 1 (Homo sapiens) (P11387 whole entry): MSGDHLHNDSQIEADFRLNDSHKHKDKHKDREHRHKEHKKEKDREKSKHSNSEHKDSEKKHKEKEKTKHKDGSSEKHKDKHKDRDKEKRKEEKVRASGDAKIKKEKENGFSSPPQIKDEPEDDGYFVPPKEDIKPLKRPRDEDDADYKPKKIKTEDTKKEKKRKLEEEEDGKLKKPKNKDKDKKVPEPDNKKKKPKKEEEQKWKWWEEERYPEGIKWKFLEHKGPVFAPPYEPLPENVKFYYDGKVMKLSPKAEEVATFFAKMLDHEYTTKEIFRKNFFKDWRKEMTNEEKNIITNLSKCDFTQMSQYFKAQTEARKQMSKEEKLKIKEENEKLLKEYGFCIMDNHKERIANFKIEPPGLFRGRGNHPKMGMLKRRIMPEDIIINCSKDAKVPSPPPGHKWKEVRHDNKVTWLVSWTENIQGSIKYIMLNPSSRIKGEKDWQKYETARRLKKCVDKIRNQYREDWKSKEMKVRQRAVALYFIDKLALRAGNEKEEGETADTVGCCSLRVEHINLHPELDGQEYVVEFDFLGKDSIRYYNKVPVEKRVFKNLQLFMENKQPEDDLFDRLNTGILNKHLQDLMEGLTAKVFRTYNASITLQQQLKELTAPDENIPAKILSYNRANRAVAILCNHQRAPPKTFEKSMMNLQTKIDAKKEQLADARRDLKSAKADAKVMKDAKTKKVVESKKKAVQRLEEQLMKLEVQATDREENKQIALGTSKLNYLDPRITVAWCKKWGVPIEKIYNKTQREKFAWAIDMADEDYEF

Row | IC50 (HCCLM9) [µM] | IC50 (Huh-7) [µM] | IC50 (HepG2) [µM] | IC50 (HT-29) [µM] | IC50 (HCT-116) [µM] | IC50 (SW480) [µM] | IC50 (MCF7) [µM] | IC50 (MDA-MB-231) [µM] | IC50 (SGC-7901) [µM] | IC50 (BGC-823) [µM] | IC50 (A549) [µM] | IC50 (U-251) [µM] | IC50 (HL-60) [µM] | IC50 (SK-HEP1) [µM] | inhibition [1] | Structure (SMILES) | IC50 (RKO) [µM] | IC50 (HGC-27) [µM] | IC50 (L02) [µM]
1 | 32.4 | 59.5 | > 150 | 146 | > 150 | 40.6 | 94.6 | 103 | 81.9 | 31.6 | > 150 | 65.1 | > 150 |  |  | COc1cc(CCN(C)C)c(-c2cc3ccc4c(c3cn2)OCO4)cc1OC | > 150 | > 150 | > 150
2 | > 150 | 40.8 | > 150 | > 150 | > 150 | > 150 |  |  |  |  |  |  |  |  |  | OCc1c(-c2cc3c4c(ccc3cn2)OCO4)ccc2c1OCO2 | > 150 |  | > 150
3 | 21 | 17.6 | 72.5 | > 150 | > 150 | 36.3 | 61.7 | 30.2 | 45.1 | 33.6 | 65.2 | 28.5 | 130 | 32.4 |  | CN(C)CCc1cc2c(cc1-c1cc3ccc4c(c3cn1)OCO4)OCO2 | > 150 | 78.5 | 
4 | 15.6 | 20 | 80.4 | 96.6 | > 150 | 40.6 | 60.4 | 35.6 | 55.5 | 51.8 | 65.7 | 24.5 | 93.6 | 38.2 |  | CN(C)CCCc1cc2c(cc1-c1cc3ccc4c(c3cn1)OCO4)OCO2 | 126 | > 150 | > 150
5 | > 150 | 63.9 | 74 | > 150 | 86 | > 150 | 130 | 60.9 | > 150 | 79.4 | 96 | 53.4 | > 150 | 145 |  | CN(C=O)CCc1cc2c(cc1-c1cc3ccc4c(c3cn1)OCO4)OCO2 | > 150 | 69 | > 150
6 | 38.5 | 37.8 | 55.4 | 41.6 | 97 | 63.2 | 53.6 | 26.6 | 39 | 83.5 | 81.9 | 15 |  | 35.6 |  | CN(C)CCCCc1cc2c(cc1-c1cc3ccc4c(c3cn1)OCO4)OCO2 | 93.1 | 38.9 | 
7 | 12.5 | 25.5 | 46.7 | 46.7 |  | 74.7 |  |  |  |  |  |  |  |  |  | CN(C)Cc1c(-c2cc3c4c(ccc3cn2)OCO4)ccc2c1OCO2 | 47 |  | > 150

The next lines start with the compound.

Row | Structure (SMILES) | IC50 (HCCLM9) [µM] | IC50 (Huh-7) [µM] | IC50 (HepG2) [µM] | IC50 (HT-29) [µM] | IC50 (HCT-116) [µM] | IC50 (SW480) [µM] | IC50 (MCF7) [µM] | IC50 (MDA-MB-231) [µM] | IC50 (SGC-7901) [µM] | IC50 (BGC-823) [µM] | IC50 (A549) [µM] | IC50 (U-251) [µM] | IC50 (HL-60) [µM] | IC50 (SK-HEP1) [µM] | inhibition [1] | IC50 (RKO) [µM] | IC50 (HGC-27) [µM] | IC50 (L02) [µM]
8 | CN(C)Cc1cc2c(cc1-c1cc3ccc4c(c3cn1)OCO4)OCO2 | 8.83 | 11.2 | 20.8 | 36 | 67.2 | 8.54 |  | 12.8 | 48.2 |  | 17.4 | 24.6 | 115 | 17.2 | Active | 28.7 | 19.1 | > 150
9 | OCc1cc2c(cc1-c1cc3ccc4c(c3cn1)OCO4)OCO2 | 32.7 | 42.3 |  | 46.7 | 46.7 | 36.9 |  |  |  |  |  |  |  |  |  | 87.4 |  | 
10 | CNCCCc1cc2c(cc1-c1cc3ccc4c(c3cn1)OCO4)OCO2 | 20.4 | 19 | 35.7 | 41.1 | 80.9 | 29.4 | 42.8 | 39.5 | 41.6 | 44.9 | 52.1 | 27.7 | > 150 | 22.2 |  | 106 | 73.2 | 90.4
11 | CNCCCCc1cc2c(cc1-c1cc3ccc4c(c3cn1)OCO4)OCO2 | 10.4 | 13.7 | 23.2 | 27.5 | 57.6 | 15.2 | 54.6 | 19.6 | 20 | 26.7 | 18.7 | 10.8 |  | 16 |  | 81.7 | 55.3 | 
12 | CCOC(=O)N(C)CCc1cc2c(cc1-c1cc3ccc4c(c3cn1)OCO4)OCO2 | 25.1 | 19.2 | 27.3 | 96.6 | > 150 | 28.6 | 69.7 | 36.7 | 28.8 | 49.9 | > 150 | 51.8 | > 150 | 103 |  | 91.6 | 99.8 | 149
13 | COCCc1cc(OC)c(OC)cc1-c1cc2ccc3c(c2cn1)OCO3 | > 150 | 77 | > 150 | > 150 | > 150 | 105 | 32.4 | 128 | > 150 | > 150 | > 150 | > 150 | > 150 |  |  | > 150 | 120 | > 150
14 | CNCCc1cc2c(cc1-c1cc3ccc4c(c3cn1)OCO4)OCO2 | 10 | 15.5 | 45 | 23 | > 150 | 25.4 | 49.9 | 19.3 |  | 25.9 |  | 19.1 | 113 | 28.2 |  | 63.5 | 20.9 | > 150
15 | CNCCc1cc(OC)c(OC)cc1-c1cc2ccc3c(c2cn1)OCO3 | 20.2 | 42.9 |  | 122 | > 150 | 21.8 | 52.8 | 68.7 | > 150 | 15.8 |  | 43.3 | > 150 | 69.9 |  | > 150 | 93.9 | > 150
16 | CNCc1c(-c2cc3c4c(ccc3cn2)OCO4)ccc2c1OCO2 | 7.25 | 20.2 | 26.7 | 44.5 | 26.7 | 42.7 |  |  |  |  |  |  |  |  |  | 26.7 |  | 74.6
